In patent publication US12660819B2, “Herbicidal derivatives” (SYNGENTA CROP PROTECTION AG, priority 2020, dated 2026):

How the values were obtained:
Format in all cases: in vivo
[1] = test system: Abutilon theophrasti (ABUTH); experiment: Post-emergence Test (glasshouse, percentage damage to the plant); conditions: post-emergence spray, 1000 g/ha unless otherwise stated, evaluated after 13 days
Procedure, shortened: (§1)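 Rate 1000 g/ha unless stated otherwise. Vehicle: acetone/water 50:50 with 0.5% Tween 20, diluted into aqueous spray. Timing: spray after sowing, read 13 days later. Score: 5=81-100%, 4=61-80%, 3=41-60%, 2=21-40%, 1=0-20% damage.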

[2] = test system: Amaranthus retoflexus (AMARE); experiment: as above; conditions: post-emergence spray, 1000 g/ha unless otherwise stated, evaluated after 13 days
Procedure, shortened: as §1

[3] = test system: Echinochloa crus-galli (ECHCG); experiment: as above; conditions: post-emergence spray, 1000 g/ha unless otherwise stated, evaluated after 13 days
Procedure, shortened: as §1

[4] = test system: Ipomoea hederacea (IPOHE); experiment: as above; conditions: post-emergence spray, 1000 g/ha unless otherwise stated, evaluated after 13 days
Procedure, shortened: (§2)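 Scored 13 days after spraying as percentage plant damage in five bands (5=81–100%, 4=61–80%, 3=41–60%, 2=21–40%, 1=0–20%). Spray at 1000 g/ha unless stated, in acetone/water 50:50 plus 0.5% Tween 20, onto sown glasshouse pots (24/16 °C, 14 h light, 65% humidity).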

Setaria faberi (SETFA) [5] = experiment: as above; conditions: post-emergence spray, 1000 g/ha unless otherwise stated, evaluated after 13 days
Procedure, shortened: as §2

Zea mays (ZEAMX) [6] = experiment: as above; conditions: post-emergence spray, 1000 g/ha unless otherwise stated, evaluated after 13 days
Procedure, shortened: as §2

[7] = test system: Amaranthus retoflexus (AMARE); experiment: Pre-emergence Test (glasshouse, percentage damage to the plant); conditions: 1000 g/ha unless otherwise stated, five-point scale
Setaria faberi (SETFA) [8] = experiment: as above; conditions: 1000 g/ha unless otherwise stated, five-point scale
[9] = test system: Echinochloa crus-galli (ECHCG); experiment: as above; conditions: 1000 g/ha unless otherwise stated, five-point scale
[10] = test system: Ipomoea hederacea (IPOHE); experiment: as above; conditions: 1000 g/ha unless otherwise stated, five-point scale
[11] = test system: Abutilon theophrasti (ABUTH); experiment: as above; conditions: 1000 g/ha unless otherwise stated, five-point scale
Zea mays (ZEAMX) [12] = experiment: as above; conditions: 1000 g/ha unless otherwise stated, five-point scale

Row | Structure (SMILES) | Post-emergence Test ABUTH, percentage damage to the plant (five-point scale) [1] | Post-emergence Test AMARE, percentage damage to the plant (five-point scale) [2] | Post-emergence Test ECHCG, percentage damage to the plant (five-point scale) [3] | Post-emergence Test IPOHE, percentage damage to the plant (five-point scale) [4] | Post-emergence Test SETFA, percentage damage to the plant (five-point scale) (Setaria faberi (SETFA) [5]) | Post-emergence Test ZEAMX, percentage damage to the plant (five-point scale) (Zea mays (ZEAMX) [6]) | percentage damage to the plant, AMARE [7] | percentage damage to the plant, SETFA (Setaria faberi (SETFA) [8]) | percentage damage to the plant, ECHCG [9] | percentage damage to the plant, IPOHE [10] | percentage damage to the plant, ABUTH [11] | percentage damage to the plant, ZEAMX (Zea mays (ZEAMX) [12])
1 | CCn1c(C)c(-c2cncc(OC)c2)c(=O)c(C(=O)O)c1-c1ccc(Cl)c(Cl)c1 [Compound 61, 2-(3,4-dichlorophenyl)-1-ethyl-5-(5-methoxy-3-pyridyl)-6-methyl-4-oxo-pyridine-3-carboxylic acid] | 2 (2=21-40%) | 1 (1=0-20%) | 1 (1=0-20%) | 1 (1=0-20%) | 3 (3=41-60%) | 1 (1=0-20%) | 1 (1=0-20%) | 4 (4=61-80%) | 1 (1=0-20%) | 1 (1=0-20%) | 2 (2=21-40%) | 1 (1=0-20%)
2 | CCn1c(C)c(-c2ccc(OC)c(OC)c2)c(=O)c(C(=O)O)c1-c1ccc(Cl)c(Cl)c1 [Compound 99, 2-(3,4-dichlorophenyl)-5-(3,4-dimethoxyphenyl)-1-ethyl-6-methyl-4-oxo-pyridine-3-carboxylic acid] | 3 (3=41-60%) | 3 (3=41-60%) | 4 (4=61-80%) | 2 (2=21-40%) | 4 (4=61-80%) | 2 (2=21-40%) | 2 (2=21-40%) | 4 (4=61-80%) | 3 (3=41-60%) | 1 (1=0-20%) | 2 (2=21-40%) | 2 (2=21-40%)
3 | CCn1c(C)c(-c2ccc(F)cc2C)c(=O)c(C(=O)O)c1-c1ccc(Cl)c(Cl)c1 [Compound 155, 2-(3,4-dichlorophenyl)-1-ethyl-5-(4-fluoro-2-methyl-phenyl)-6-methyl-4-oxo-pyridine-3-carboxylic acid] | 4 (4=61-80%) | 3 (3=41-60%) | 4 (4=61-80%) | 4 (4=61-80%) | 4 (4=61-80%) | 4 (4=61-80%) | 1 (1=0-20%) | 5 (5=81-100%) | 5 (5=81-100%) | 1 (1=0-20%) | 2 (2=21-40%) | 1 (1=0-20%)
4 | CCOc1ccc(-c2c(C)n(CC)c(-c3ccc(Cl)c(Cl)c3)c(C(=O)O)c2=O)cc1 [Compound 96, 2-(3,4-dichlorophenyl)-5-(4-ethoxyphenyl)-1-ethyl-6-methyl-4-oxo-pyridine-3-carboxylic acid] | 4 (4=61-80%) | 1 (1=0-20%) | 2 (2=21-40%) | 3 (3=41-60%) | 3 (3=41-60%) | 2 (2=21-40%) | 1 (1=0-20%) | 2 (2=21-40%) | 1 (1=0-20%) | 1 (1=0-20%) | 1 (1=0-20%) | 1 (1=0-20%)
5 | CCn1c(C)c(-c2cnc3c(c2)OC(F)(F)O3)c(=O)c(C(=O)O)c1-c1ccc(Cl)c(Cl)c1 [Compound 60, 2-(3,4-dichlorophenyl)-5-(2,2-difluoro-[1,3]dioxolo[4,5-b]pyridin-6-yl)-1-ethyl-6-methyl-4-oxo-pyridine-3-carboxylic acid] | 2 (2=21-40%) | 2 (2=21-40%) | 3 (3=41-60%) | 2 (2=21-40%) | 4 (4=61-80%) | 1 (1=0-20%) | 2 (2=21-40%) | 4 (4=61-80%) | 2 (2=21-40%) | 2 (2=21-40%) | 3 (3=41-60%) | 1 (1=0-20%)
6 | CCOC(=O)c1c(-c2ccc(F)cc2F)n(CC)c(C)c(-c2ccc(Cl)cc2)c1=O [Compound 134, ethyl 5-(4-chlorophenyl)-2-(2,4-difluorophenyl)-1-ethyl-6-methyl-4-oxo-pyridine-3-carboxylate] | 3 (3=41-60%) | 3 (3=41-60%) | 4 (4=61-80%) | 3 (3=41-60%) | 4 (4=61-80%) | 3 (3=41-60%) | 1 (1=0-20%) | 0 | 0 | 0 | 1 (1=0-20%) | 0
7 | CCn1c(C)c(-c2ccc(OC)c(Cl)c2)c(=O)c(C(=O)O)c1-c1ccc(Cl)c(Cl)c1 [Compound 101, 5-(3-chloro-4-methoxy-phenyl)-2-(3,4-dichlorophenyl)-1-ethyl-6-methyl-4-oxo-pyridine-3-carboxylic acid] | 3 (3=41-60%) | 3 (3=41-60%) | 3 (3=41-60%) | 2 (2=21-40%) | 3 (3=41-60%) | 2 (2=21-40%) | 2 (2=21-40%) | 4 (4=61-80%) | 2 (2=21-40%) | 1 (1=0-20%) | 2 (2=21-40%) | 2 (2=21-40%)
8 | CCOc1cc(-c2c(C)n(CC)c(-c3ccc(Cl)c(Cl)c3)c(C(=O)O)c2=O)ccc1C#N [Compound 107, 5-(4-cyano-3-ethoxy-phenyl)-2-(3,4-dichlorophenyl)-1-ethyl-6-methyl-4-oxo-pyridine-3-carboxylic acid] | 3 (3=41-60%) | 4 (4=61-80%) | 2 (2=21-40%) | 3 (3=41-60%) | 2 (2=21-40%) | 2 (2=21-40%) | 4 (4=61-80%) | 5 (5=81-100%) | 4 (4=61-80%) | 1 (1=0-20%) | 1 (1=0-20%) | 1 (1=0-20%)
9 | CCNC(=O)c1cc(-c2c(C)n(CC)c(-c3ccc(Cl)c(Cl)c3)c(C(=O)O)c2=O)ccc1Cl [Compound 72, 5-[4-chloro-3-(ethylcarbamoyl)phenyl]-(3,4-dichlorophenyl)-1-ethyl-6-methyl-4-oxo-pyridine-3-carboxylic acid] | 1 (1=0-20%) | 1 (1=0-20%) | 1 (1=0-20%) | 1 (1=0-20%) | 1 (1=0-20%) | 1 (1=0-20%) | 1 (1=0-20%) | 1 (1=0-20%) | 1 (1=0-20%) | 1 (1=0-20%) | 1 (1=0-20%) | 1 (1=0-20%)
